For series [1] the following is noted: powdered form, repeated inhalation of dust; cited from earlier work.
The procedure of series [2]:
Pinoxaden (25 g) was added to the respective solvent (75 g) as set out in Table 1 and stirred at 50° C. for 1 hour. After cooling to room temperature (RT) the sample was visually checked for solid residues.
Where there were no residues and the resulting solution was a clear liquid the sample was considered as a “pass”.

On to `CCc1cc(C)cc(CC)c1-c1c(OC(=O)C(C)(C)C)n2n(c1=O)CCOCC2` [pinoxaden], for which the respiratory sensitisation result in series [1] is given as “respiratory sensitizer”.
For the compound “cyclohexanedicarboxylic acid, dinonyl ester”, in series [2], the Solubility result was “Fail”.
Take rapeseed oil: the Solubility entry in series [2] is on record as “Fail”.

Values taken from US20240423206A1, “HERBICIDE TRANSPORT SYSTEM” (priority 2021, published 2024).
